Results reported in EPA's ToxRefDB 2.

Assays:
rat [1] = conditions: Subchronic oral toxicity in rodents, wistar, Gavage/Intubation, dose end: 90 day, group: systemic
rabbit [2] = conditions: Prenatal developmental toxicity study, himalayan, Injection, Intravenous, dose end: 18 GD
dog [3] = conditions: Subchronic oral toxicity in nonrodent, beagle, Capsule, dose end: 3 month, group: systemic, systemic / clinical chemistry / alanine aminotransferase (alt/sgpt) / alanine aminotransferase (alt/sgpt)
dog [4] = conditions: Chronic toxicity, beagle, Oral, Capsule, dose end: 1 year, group: systemic
mouse [5] = conditions: Fertility (Segment I); other; Injection; Intravenous; dose end: 3 GD; group: parental; systemic / in life observation / clinical signs / motor activity
rat [6] = conditions: Carcinogenicity, wistar, Oral, Gavage/Intubation, dose end: 24 month, group: systemic
rat [7] = conditions: Fertility (Segment I), wistar, Injection, Intravenous, dose end: 26 PND
rat [8] = conditions: Peri- and post-natal toxicity study (Segment III); wistar; Injection; Intravenous; dose end: 21 PND; group: parental; systemic / in life observation / body weight / body weight gain + systemic / in life observation / clinical signs / motor activity + …
rat [9] = conditions: Subchronic oral toxicity in rodents, sprague dawley, Feed, dose end: 90 day, group: systemic, systemic / pathology microscopic / stomach / hyperkeratosis + systemic / pathology microscopic / stomach / hyperplasia
rat [10] = conditions: Multigenerational reproductive toxicity study, Crl: CD BR, Oral, Feed, dose end: 2 generation
dog [11] = conditions: Subchronic oral toxicity in nonrodent, beagle, Capsule, dose end: 98 day, group: systemic
mouse [12] = conditions: Subchronic oral toxicity in rodents, cd1, Feed, dose end: 90 day, group: systemic
mouse [13] = conditions: Combined chronic toxicity/carcinogenicity; cd1; Oral; Feed; dose end: 24 month; group: systemic; systemic / pathology microscopic / stomach / carcinoma + systemic / organ weight / kidney / nos + systemic / organ weight / ovary / relative…
rabbit [14] = conditions: Prenatal developmental toxicity study, new zealand white, Oral, Gavage/Intubation, dose end: 19 GD, group: maternal
rat [15] = conditions: Chronic toxicity, sprague dawley, Oral, Feed, dose end: 104 week, group: systemic
dog [16] = conditions: Subchronic oral toxicity in nonrodent, beagle, Capsule, dose end: 102 day, group: systemic
rat [17] = conditions: Subchronic oral toxicity in rodents, sprague dawley, Feed, dose end: 90 day, group: systemic, systemic / organ weight / adrenal gland / absolute + systemic / organ weight / adrenal gland / relative to body weight + systemic / organ …
dog [18] = conditions: Chronic toxicity, beagle, Oral, Feed, dose end: 104 week, group: systemic
[19] = systemic / clinical chemistry / urea nitrogen / urea + systemic / hematology / blood clotting / blood clotting - clotting time + systemic / …
[20] = group: developmental, developmental / developmental malformation / general / crown-rump length + systemic / in life observation / body weight / fetal weight
[21] = group: maternal, systemic / in life observation / body weight / body weight gain + systemic / in life observation / clinical signs / [other] + systemic / in …
[22] = systemic / clinical chemistry / alanine aminotransferase (alt/sgpt) / alanine aminotransferase (alt/sgpt)
[23] = systemic / clinical chemistry / alanine aminotransferase (alt/sgpt) / alanine aminotransferase (alt/sgpt) + systemic / clinical chemistry / …
[24] = systemic / in life observation / clinical signs / salivation + systemic / organ weight / liver / relative to body weight + systemic / in …
[25] = systemic / pathology microscopic / stomach / neoplasm nos + systemic / hematology / hematocrit (hct) / hematocrit (hct) + systemic / …
[26] = group: developmental, developmental / offspring survival late / viability index / viability index
[27] = group: maternal, reproductive / reproductive performance / pregnancy / pregnancy
[28] = group: offspring, systemic / in life observation / clinical signs / [other] + systemic / in life observation / clinical signs / abnormal gait + systemic / in …
[29] = group: offspring, systemic / in life observation / clinical signs / abnormal gait + systemic / in life observation / clinical signs / convulsions + systemic…
[30] = group: parental, systemic / in life observation / body weight / body weight gain + systemic / in life observation / clinical signs / [other] + systemic / in …
[31] = group: offspring, systemic / pathology gross / stomach / irregular surface + systemic / pathology gross / stomach / thickened + systemic / pathology …
[32] = group: parental, systemic / organ weight / kidney / relative to body weight + systemic / pathology gross / stomach / irregular surface + systemic / pathology…
[33] = systemic / pathology gross / urinary bladder / lesion(s) (nos)
[34] = systemic / in life observation / clinical signs / anorexia + systemic / in life observation / clinical signs / no feces
[35] = systemic / clinical chemistry / potassium / potassium
[36] = systemic / clinical chemistry / potassium / potassium + systemic / clinical chemistry / albumin / albumin + systemic / clinical chemistry / …
[37] = systemic / clinical chemistry / bilirubin / total bilirubin

## CC(C)c1ccc(C(=O)N=C(N)N)cc1S(C)(=O)=O.CS(=O)(=O)O [Cariporide mesylate]
Rat [1]; [19]
  LOAEL: 100 mg/kg/day
  NEL: 5 mg/kg/day
  NOAEL: 22 mg/kg/day
Rat [1]; systemic / organ weight / liver / relative to body weight
  LEL: 22 mg/kg/day
Rabbit [2]; [20]
  LEL: 40 mg/kg/day
  LOAEL: > 40 mg/kg/day
  NEL: 16 mg/kg/day
  NOAEL: ≥ 40 mg/kg/day
Rabbit [2]; [21]
  LOAEL: > 40 mg/kg/day
  NEL: 6.3 mg/kg/day
  NOAEL: ≥ 40 mg/kg/day
Rabbit [2]; group: maternal, systemic / in life observation / clinical signs / piloerection + systemic / in life observation / food consumption / food consumption
  LEL: 16 mg/kg/day
Dog [3]
  LEL: 8 mg/kg/day
  LOAEL: > 20 mg/kg/day
  NEL: 3.2 mg/kg/day
  NOAEL: ≥ 20 mg/kg/day
Dog [4]; [22]
  LEL: 3.2 mg/kg/day
  NEL: < 3.2 mg/kg/day
Dog [4]; [23]
  LOAEL: > 20 mg/kg/day
  NOAEL: ≥ 20 mg/kg/day
Mouse [5]
  LEL: 150 mg/kg/day
  LOAEL: > 150 mg/kg/day
  NEL: 50 mg/kg/day
  NOAEL: ≥ 150 mg/kg/day
Rat [6]; [24]
  LEL: 12 mg/kg/day
  NEL: < 12 mg/kg/day
Rat [6]; [25]
  LOAEL: > 400 mg/kg/day
  NOAEL: ≥ 400 mg/kg/day
Rat [7]; [26]
  LEL: 125 mg/kg/day
  LOAEL: > 125 mg/kg/day
  NEL: 25 mg/kg/day
  NOAEL: ≥ 125 mg/kg/day
Rat [7]; [27]
  LEL: 125 mg/kg/day
  LOAEL: > 125 mg/kg/day
  NEL: 25 mg/kg/day
  NOAEL: ≥ 125 mg/kg/day
Rat [7]; [28]
  LOAEL: > 125 mg/kg/day
  NOAEL: ≥ 125 mg/kg/day
Rat [7]; [29]
  LEL: 5 mg/kg/day
  NEL: < 5 mg/kg/day
Rat [7]; [30]
  LEL: 125 mg/kg/day
  LOAEL: > 125 mg/kg/day
  NEL: 25 mg/kg/day
  NOAEL: ≥ 125 mg/kg/day
Rat [8]
  LEL: 125 mg/kg/day
  LOAEL: > 125 mg/kg/day
  NEL: 5 mg/kg/day
  NOAEL: ≥ 125 mg/kg/day

## N#Cc1c(Cl)c(Cl)c(Cl)c(C#N)c1Cl [Chlorothalonil]
Rat [9]
  LEL: 2.3 mg/kg/day
  LOAEL: 2.3 mg/kg/day
  NEL: < 2.3 mg/kg/day
  NOAEL: < 2.3 mg/kg/day
Rat [10]; [31]
  LEL: 32.9 mg/kg/day
  LOAEL: 32.9 mg/kg/day
  NEL: < 32.9 mg/kg/day
  NOAEL: < 32.9 mg/kg/day
Rat [10]; [32]
  LEL: 28.6 mg/kg/day
  LOAEL: 28.6 mg/kg/day
  NEL: < 28.6 mg/kg/day
  NOAEL: < 28.6 mg/kg/day
Dog [11]; [22]
  LEL: 15 mg/kg/day
  NEL: < 15 mg/kg/day
Dog [11]; systemic / in life observation / body weight / body weight gain
  LOAEL: 150 mg/kg/day
Dog [11]; systemic / in life observation / body weight / body weight gain + systemic / clinical chemistry / alanine aminotransferase (alt/sgpt) / …
  NOAEL: 15 mg/kg/day
Mouse [12]; [33]
  LEL: 1.12 mg/kg/day
  NEL: < 1.12 mg/kg/day
Mouse [12]; systemic / pathology microscopic / stomach / hyperkeratosis + systemic / pathology microscopic / stomach / hyperplasia + systemic / clinical…
  NOAEL: 2.25 mg/kg/day
Mouse [12]; systemic / pathology microscopic / stomach / hyperkeratosis + systemic / pathology microscopic / stomach / hyperplasia + systemic / …
  LOAEL: 7.5 mg/kg/day
Mouse [13]
  LEL: 112 mg/kg/day
  LOAEL: 112 mg/kg/day
  NEL: < 112 mg/kg/day
  NOAEL: < 112 mg/kg/day
Rabbit [14]; systemic / in life observation / body weight / body weight gain + systemic / in life observation / food consumption / food consumption
  LOAEL: 500 mg/kg/day
Rabbit [14]; systemic / in life observation / body weight / body weight gain + systemic / in life observation / food consumption / food consumption + …
  NOAEL: 250 mg/kg/day
Rabbit [14]; [34]
  LEL: 250 mg/kg/day
  NEL: < 250 mg/kg/day
Rat [15]; [35]
  LEL: 0.5 mg/kg/day
  NEL: < 0.5 mg/kg/day
Rat [15]; [36]
  LOAEL: 10 mg/kg/day
  NOAEL: 3 mg/kg/day
Dog [16]; systemic / clinical chemistry / glucose / glucose
  LEL: 15 mg/kg/day
Dog [16]; systemic / clinical chemistry / glucose / glucose + systemic / organ weight / liver / absolute + systemic / urinalysis / ph / ph
  LOAEL: 50 mg/kg/day
Dog [16]; systemic / clinical chemistry / glucose / glucose + systemic / organ weight / liver / absolute + systemic / urinalysis / ph / ph + systemic…
  NOAEL: 15 mg/kg/day
Dog [16]; systemic / clinical chemistry / glucose / glucose + systemic / urinalysis / ph / ph + systemic / hematology / erythrocyte (rbc) count …
  NEL: 5 mg/kg/day
Rat [17]
  LEL: 250 mg/kg/day
  LOAEL: 750 mg/kg/day
  NEL: < 250 mg/kg/day
  NOAEL: 250 mg/kg/day
Dog [18]; [37]
  LEL: 1.8 mg/kg/day
  NEL: < 1.8 mg/kg/day
Dog [18]; systemic / pathology microscopic / kidney / vacuolization + systemic / clinical chemistry / bilirubin / total bilirubin
  LOAEL: 3.5 mg/kg/day
Dog [18]; systemic / pathology microscopic / kidney / vacuolization + systemic / pathology microscopic / kidney / pigmentation
  NOAEL: 1.8 mg/kg/day
